Consider eleven compounds from patent publication US20100273189A1, “NON SEPARATION ASSAYS WITH SELECTIVE SIGNAL INHIBITORS” (BECKMAN COULTER, INC., priority 2009, published 2010).

The assay has as its target T1, biotinylated HRP (Armoracia rusticana, UniProt P00433).
T1 construct: purchased Roche Diagnostics, Indianapolis, Ind., USA
T1 sequence (P00433 31-338 limits assumed): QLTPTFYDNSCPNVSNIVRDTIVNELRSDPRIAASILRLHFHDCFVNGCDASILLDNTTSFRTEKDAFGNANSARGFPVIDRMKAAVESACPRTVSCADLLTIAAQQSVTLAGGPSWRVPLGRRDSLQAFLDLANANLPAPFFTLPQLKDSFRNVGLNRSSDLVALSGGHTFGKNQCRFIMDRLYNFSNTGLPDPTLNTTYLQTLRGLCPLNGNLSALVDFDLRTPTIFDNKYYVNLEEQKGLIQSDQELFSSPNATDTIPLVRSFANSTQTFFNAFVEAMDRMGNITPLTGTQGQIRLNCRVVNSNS
Kind of assay: Model system for selection of SSIA (M280 btn-BSA-AK1-streptavidin particles + Btn-HRP:HRP). Type of assay: biochemical. Particulars: for S/S0: Btn-HRP 0 ng/mL vs 0; for S/S0 / S1/S0 / S2/S0 / S3/S0 / S4/S0 / effect in the model system / utility as SSIA: SSIA 100 μM; for B-HRP0 light intensity: Btn-HRP 0 ng/mL; for B-HRP0 light intensity / B-HRP1 light intensity / B-HRP10 light intensity / B-HRP100 light intensity / B-HRP250 light intensity: total HRP 500 ng/mL, SSIA final 100 μM; for S1/S0: Btn-HRP 1 ng/mL vs 0; for B-HRP1 light intensity: Btn-HRP 1 ng/mL; for S2/S0: Btn-HRP 10 ng/mL vs 0; for B-HRP10 light intensity: Btn-HRP 10 ng/mL; for S3/S0: Btn-HRP 100 ng/mL vs 0; for B-HRP100 light intensity: Btn-HRP 100 ng/mL; for S4/S0: Btn-HRP 250 ng/mL vs 0; for B-HRP250 light intensity: Btn-HRP 250 ng/mL; for effect in the model system / utility as SSIA: conclusion in words. The method, then:
The model system uses a microparticle conjugated to BSA (bovine serum albumin) labeled with a […] and acridan ketenedithioacetal chemiluminescent label (AK1) as the chemiluminescent-labeled sbp, and biotinylated HRP as the activator-labeled specific binding pair. In the model system, varying amounts of Btn-HRP is added to the chemiluminescent-labeled specific binding pair at 0, 1, 10, 100 and 250 ng/mL. Additional unlabeled HRP is added to reach a total HRP of concentration of 500 ng/mL in each reaction mixture. The unlabeled HRP in combination with the activator-labeled sbp was provided to the chemiluminescent-labeled sbp microparticles to emulate sample. A compound for assessment as an SSIA was also added. This reaction mixture of the model system is then triggered by addition of trigger solution in a manner of assays of the present disclosure.
To prepare the chemiluminescent-labeled sbp on microparticles, Bovine Serum Albumin (BSA) was biotinylated with 4× molar excess of biotin-LC-sulfoNHS (Pierce Biotechnology Inc., Rockford, Ill., USA). Unbound reactants were removed via desalting or dialysis. The biotin-BSA was then reacted with a 5× molar excess of acridan ketenedithioacetal AK1 in 20 mM sodium phosphate pH 7.2: DMSO 75:25, v/v) followed by desalting in the same buffer. The dual labeled (biotin and AK1) BSA was then coupled with tosyl activated M-280 microparticles (Invitrogen Corporation, Carlsbad, Calif., USA) in a 0.1 M borate buffer pH 9.5 at a concentration of ca. 20 μg labeled BSA per mg of microparticles for 16-24 h at 40° C. After coupling the microparticles were stripped for 1 h at 40° C. with 0.2 M TRIS base, 2% SDS, pH ˜11. The stripping process was repeated one additional time. Microparticles were then suspended in a 0.1% BSA/TRIS buffered saline (BSA/TBS) buffer and streptavidin (SA) was added at approximately 15 μg SA per mg microparticles. Streptavidin was mixed with the microparticles for 45-50 min at room temperature. The microparticles were then washed three times and suspended in the same BSA/TBS.
HRP, (Roche Diagnostics, Indianapolis, Ind., USA) was biotinylated with 4× molar excess of biotin-LC-sulfoNHS (Pierce Biotechnology Inc., Rockford, Ill., USA). Unbound reactants were removed via desalting or dialysis.
Each SSIA compound for assessment was dissolved in Buffer II at a concentration at least 10× of final concentration of the reaction mixture (after the addition of the trigger solution)
Paramagnetic particles (PMP): (M280)-(btn-BSA-AK)-(Streptavidin);
Sample Emulator: B-HRP:HRP; 500 ng/mL total with titration of B-HRP:HRP at Total HRP concentration of 500 ng/mL, with Btn-HRP variations: 0, 1, 10, 100 and 250 ng/mL.
SSIA: According to tables below in BUFFER II targeted to give a final concentration of 100 μM.
Trigger solution A is defined above.
5 μl of 1 mg/ml of dual-labeled (biotin and AK1) BSA M280 particles were mixed with 45 μl of working concentration SSIA in Buffer II. The assay volume brought to […] by adding 15 μl of Buffer II. 15 μl of sample containing Btn-HRP:HRP at different ratios (The amount of biotinylated-HRP varied from 0, 1, 10, 100 and 250 ng/mL) was added. The reaction mixture was incubated for 30 min at 37° C., then 100 μL of trigger solution was added and the light intensity recorded. Total volume of reaction mixture, including trigger solution was […] with a final concentration of 100 μM of SSIA.

With `CC1(C)OC[C@@H]([C@H]2OC(=O)C(O)=C2O)O1` [5,6iso-propyliene ascorbic acid, 5,6-Isopropylidene-L-Ascorbic acid], the S/S0 is reported as 1, the B-HRP0 light intensity is reported as 264, the S1/S0 is 3.6 and the B-HRP1 light intensity is given as 961. Moreover, the S2/S0 was determined as 112.3, the B-HRP10 light intensity was 29,645, the S3/S0 is 18626.9 and the B-HRP100 light intensity is on record as 4,917,499. Moreover, the S4/S0 is recorded as 33275, the B-HRP250 light intensity is given as 8,784,595 and the “effect in the model system / utility as SSIA” value was “demonstrating utility as SSIA”.
As to `Cc1c(O)cc2c(c1C)O[C@](C)(CCC[C@H](C)CCC[C@H](C)CCCC(C)C)CC2` [(+)-gamma-Tocopherol, (+)-y-Tocopherol], the S/S0 was determined as 1, the B-HRP0 light intensity was 6,051, the S1/S0 was 1.8 and the B-HRP1 light intensity is given as 10,924. The S2/S0 stood at 278.7, the B-HRP10 light intensity is 1,686,079, the S3/S0 was 1437.5 and the B-HRP100 light intensity was 8,698,069. The S4/S0 was 1699.4 and the B-HRP250 light intensity is 10,282,504.
As for `CCCCCCCCCCCCCCCC(=O)OC[C@H](O)[C@H]1OC(=O)C(O)=C1O` [Ascorbic Acid 6-palmitate, L-Ascorbic acid 6-Palmitate], the S/S0 is given as 1, the B-HRP0 light intensity is listed as 81, the S1/S0 was determined as 4 and the B-HRP1 light intensity is recorded as 327. Also, the S2/S0 is listed as 502.4, the B-HRP10 light intensity is given as 40,863, the S3/S0 is given as 100662.3 and the B-HRP100 light intensity is 8,187,204. For the same compound, the S4/S0 came out at 125193.6, the B-HRP250 light intensity was 10,182,411 and the “effect in the model system / utility as SSIA” value is given as “demonstrating utility as SSIA”.
Regarding `N[C@@H](CS)C(=O)O` [Cysteine], the S/S0 is given as 1, the B-HRP0 light intensity is 35,695, the S1/S0 is listed as 1.6 and the B-HRP1 light intensity is listed as 58,203. In addition, the S2/S0 was determined as 69.6, the B-HRP10 light intensity is 2,483,411, the S3/S0 was 256.3 and the B-HRP100 light intensity is recorded as 9,147,371. The S4/S0 is 285.5, the B-HRP250 light intensity was 10,190,505 and the “effect in the model system / utility as SSIA” value is given as “no effect”.
Regarding `COc1cc(/C=C/C(=O)O)ccc1O` [Ferulic acid], the S/S0 was determined as 1, the B-HRP0 light intensity is given as 5,252, the S1/S0 was found to be 2.3 and the B-HRP1 light intensity is on record as 12,079. Besides, the S2/S0 is recorded as 136.2, the B-HRP10 light intensity is reported as 715,313, the S3/S0 stood at 1672.9 and the B-HRP100 light intensity is recorded as 8,785,865. Further, the S4/S0 stood at 1950.5 and the B-HRP250 light intensity was 10,244,269.
In the case of `COc1ccc2[nH]cc(CCNC(C)=O)c2c1` [Melatonin], the S/S0 is 1, the B-HRP0 light intensity is listed as 54,528, the S1/S0 stood at 1.3 and the B-HRP1 light intensity is reported as 70,741. The S2/S0 is recorded as 43.7, the B-HRP10 light intensity is recorded as 2,381,361, the S3/S0 is reported as 173.7 and the B-HRP100 light intensity is 9,471,431. Further, the S4/S0 was 190.2, the B-HRP250 light intensity was 10,370,061 and the “effect in the model system / utility as SSIA” value is “no effect”.
In the case of `CC(=O)N[C@@H](CS)C(=O)O` [N-Ac-Cysteine, N-acetyl cysteine], the S/S0 is reported as 1, the B-HRP0 light intensity is listed as 43,647, the S1/S0 came to 1.1 and the B-HRP1 light intensity is reported as 47,636. The S2/S0 was 40.3, the B-HRP10 light intensity is given as 1,757,607, the S3/S0 was 199 and the B-HRP100 light intensity is reported as 8,685,795. Further, the S4/S0 is given as 234.2, the B-HRP250 light intensity is listed as 10,219,869 and the “effect in the model system / utility as SSIA” value is “no effect”.
Consider `NNC(=O)c1cccnc1` [Nicotinic Hydrazide], for which the S/S0 stood at 1, the B-HRP0 light intensity is reported as 42,260, the S1/S0 turned out to be 1.4 and the B-HRP1 light intensity is given as 58,356. In addition, the S2/S0 was 49.8, the B-HRP10 light intensity is 2,106,471, the S3/S0 stood at 194.2 and the B-HRP100 light intensity is 8,205,320. Moreover, the S4/S0 is listed as 187.5, the B-HRP250 light intensity was 7,923,092 and the “effect in the model system / utility as SSIA” value is listed as “no effect”.
As for `Oc1ccc(C=Cc2cc(O)cc(O)c2)cc1` [Resveratrol], the B-HRP0 light intensity is 64,051, the B-HRP1 light intensity is 81,452, the B-HRP10 light intensity is 1,073,968 and the B-HRP100 light intensity is 5,944,792.
For `COc1cc(C(=O)O)cc(OC)c1O` [Syringic Acid], the S/S0 stood at 1, the B-HRP0 light intensity is reported as 14,485, the S1/S0 is given as 1.6 and the B-HRP1 light intensity was 23,707. The S2/S0 is reported as 64.8, the B-HRP10 light intensity is given as 939,372, the S3/S0 came to 547.2 and the B-HRP100 light intensity was 7,927,096. Besides, the S4/S0 is 658 and the B-HRP250 light intensity is on record as 9,530,979.
On to `CC1(C)CC(O)CC(C)(C)N1[O]` [TEMPOL], for which the S/S0 turned out to be 1, the B-HRP0 light intensity is listed as 22,621, the S1/S0 amounted to 1.5 and the B-HRP1 light intensity is on record as 33,873. Further, the S2/S0 is on record as 86.8, the B-HRP10 light intensity is given as 1,963,369, the S3/S0 is listed as 407.6 and the B-HRP100 light intensity is reported as 9,220,799. Moreover, the S4/S0 came out at 467.6, the B-HRP250 light intensity is 10,578,104 and the “effect in the model system / utility as SSIA” value is listed as “no effect”.
